Data reported in patent US20240299353A1, “COMPOSITIONS AND METHODS FOR TREATING […] 5-MEO-DMT” (Alvarius Pharmaceuticals Ltd., priority 2021, published 2024).

Legend:
rats = test: Open field test; format: in vivo; settings: for duration of rearing behaviour, main effect: 5-MeO-DMT p=0.0047, cocaine p=0.0380; for duration of time spent in the centre of the arena: any treatment group; for number of rearings, main effect: cocaine p=0.0202, 5-MeO-DMT p=0.0020; for duration of time spent in the centre of the field: any of treatments
Description: In this instance the animals were 9 weeks old at the initiation of drug exposures and we selected just the high (20 mg/kg) dose of 5-MeO-DMT from the molecular study. […] Due to the number of behavioral paradigms to be completed by each animal we divided the study into two cohorts staggered by two weeks with 8 animals coming from each cohort to make up the 16 animals for each treatment group. 23 hours after 5-MeO-DMT administration the animals were introduced to the open field arena where they were allowed to freely explore the area for 5 mins. Following the open field test (OFT) animals were returned to their home cage for 2 hours before beginning either the elevated plus maze (EPM) or pre-pulse inhibition (PPI) testing. 24 hours after completing the OFT animals were returned to the chamber for the first session in novel object (NO1) testing. The animals were returned to their home cage for 2 hours before beginning the EPM or PPI test. 24 hours after NO1 the animals returned to the open field chamber for the second session in novel object (N02) testing. After completing N02 animals were returned to their home cage for 2 hours before they underwent the forced swim test (FST) pre-test. 24 hours later the animals were returned to the FS cylinders for the FST. Upon completion of the FST all animals were euthanized. A timeline of this experimental cohort is described in FIG. 8A.
The experiment was conducted as described for cohort 1 for the first 13 days of injections. There are a number of notable differences in experimental procedures between the two cohorts of animals to be highlighted. […] Finally, the dose of 5-MeO-DMT was reduced to 10 mg/kg. The order and timing of all the behavioral paradigms were kept constant between the cohorts. A timeline of this experimental cohort is described in FIG. 8B. Additionally, 5-MeO-DMT administrations were staggered so animals could be observed for the duration of acute drug effects and to ensure recovery prior to the next animal being injected. The typical symptoms of psychedelic drug administration outlined above were reproduced in all animals administered 5-MeO-DMT.
The open field environment provides a fast and relatively easy test that determines a variety of behavioral information ranging from general ambulatory ability to data regarding the emotionality of the subject animal. The technique enables investigation of different pharmacological compounds for anxiolytic or anxiogenic effects (Seibenhener, M. L. & M. C. Wooten (2015) Use of the Open Field Maze to Measure Locomotor and Anxiety-like Behavior in Mice. Journal of Visualized Experiments: JoVE, 52434). Rodents show distinct aversions to large, brightly lit, open and unknown environments (Choleris, E., A. W. Thomas, M. Kavaliers & F. S. Prato (2001) A detailed ethological analysis of the mouse open field test: effects of diazepam, chlordiazepoxide and an extremely low frequency pulsed magnetic field. Neuroscience & Biobehavioral Reviews, 25, 235-260). These features are incorporated in the open field test and form the basis of its use in behavioural paradigm testing. There are various parameters that can be quantified from the open field, but the primary parameter of interest is thigmotaxis, the tendency of a subject to remain close to walls as determined by measuring time spent in inner zones versus outer zones of the maze (Simon, P., R. Dupuis & J. Costentin (1994) Thigmotaxis as an index of anxiety in mice. Influence of dopaminergic transmissions. Behavioural brain research, 61, 59-64). […] For the OFT, animals were placed in the open field arena and allowed to freely explore for 5 minutes. The session was recorded and analysed by EthoVision software which quantified the total distance covered. The number of entries into and total time spent in the centre of the arena were scored by two observers blind to experimental conditions (FIG. 9).

[1] = humans, following insufflation; cited from earlier work
[2] = cohort 1, cocaine+20 mg/kg 5-MeO-DMT

Structure (SMILES) | duration of rearing behaviour, main effect (rats; cohort 1) | duration of time spent in the centre of the arena (rats; cohort 1) | number of rearings, main effect (rats; cohort 1) | duration of time spent in the centre of the field (rats; cohort 2) | number of entries into the centre of the open field (rats; cohort 2, cocaine p=0.0448, no post hoc differences) | number of entries into the centre of the open field arena (rats; cohort 1, 20 mg/kg 5-MeO-DMT, p=0.0139, no post hoc differences) | duration of rearing behaviour (rats; [2]) | number of rearings (rats; [2]) | total distance travelled (rats; cohort 1, cocaine+20 mg/kg 5-MeO-DMT relative to cocaine+vehicle) | total distance travelled (rats; cohort 1, saline+20 mg/kg 5-MeO-DMT relative to saline+vehicle) | number of rearings (rats; cohort 2, 10 mg/kg 5-MeO-DMT, p=0.0031, no post hoc differences) | duration of rearings (rats; cohort 2, 10 mg/kg 5-MeO-DMT, p=0.0837) | total distance travelled (rats; cohort 2, saline+10 mg/kg 5-MeO-DMT relative to saline+vehicle) | end of effects [1] [min] | peak of effects [1] [min] | start of effects [1] [min]
COC(=O)[C@H]1[C@@H](OC(=O)c2ccccc2)C[C@@H]2CC[C@H]1N2C.Cl [cocaine, cocaine hydrochloride, reference compound] | affected | not affected by any treatment group | significantly affected | not changed by any of treatments | significantly affected | – | – | – | – | – | – | – | – | – | – | –
COc1ccc2[nH]cc(CCN(C)C)c2c1 [5-MeO-DMT, 5-methoxy-N,N-dimethyltryptamine] | affected | not affected by any treatment group | significantly affected | not changed by any of treatments | – | significantly affected | significant decrease in the combination group relative to control | significantly decreased the number of rearings relative to the control and cocaine-treated animals | reduction in the total distance travelled | reduction in the total distance travelled | significant effect | not the duration of rearings | specific reduction in the total distance travelled | 60 to 70 | 35 to 40 | 3 to 4
